The values below come from patent publication USRE47739E1, “2-(pyridin-2-ylamino)-pyrido[2,3-D]pyrimidin-7-ones” (Warner-Lambert Company LLC, priority 2002, dated 2019).

Structures can show the parent of a compound that is named as a salt.

In data set [1] the target is FGF receptor (FGFr) tyrosine kinase (Homo sapiens, UniProt P11362). The data set is described as follows: Assay for Inhibition of FGFr. The data set is classed as biochemical. The note with it: 50 μM ATP, Poly (4:1) glutamate-tyrosine substrate, 25° C. As to the method: (§1) The assays were carried out as described below.
Sequence of FGF receptor (FGFr) tyrosine kinase (P11362 22-822): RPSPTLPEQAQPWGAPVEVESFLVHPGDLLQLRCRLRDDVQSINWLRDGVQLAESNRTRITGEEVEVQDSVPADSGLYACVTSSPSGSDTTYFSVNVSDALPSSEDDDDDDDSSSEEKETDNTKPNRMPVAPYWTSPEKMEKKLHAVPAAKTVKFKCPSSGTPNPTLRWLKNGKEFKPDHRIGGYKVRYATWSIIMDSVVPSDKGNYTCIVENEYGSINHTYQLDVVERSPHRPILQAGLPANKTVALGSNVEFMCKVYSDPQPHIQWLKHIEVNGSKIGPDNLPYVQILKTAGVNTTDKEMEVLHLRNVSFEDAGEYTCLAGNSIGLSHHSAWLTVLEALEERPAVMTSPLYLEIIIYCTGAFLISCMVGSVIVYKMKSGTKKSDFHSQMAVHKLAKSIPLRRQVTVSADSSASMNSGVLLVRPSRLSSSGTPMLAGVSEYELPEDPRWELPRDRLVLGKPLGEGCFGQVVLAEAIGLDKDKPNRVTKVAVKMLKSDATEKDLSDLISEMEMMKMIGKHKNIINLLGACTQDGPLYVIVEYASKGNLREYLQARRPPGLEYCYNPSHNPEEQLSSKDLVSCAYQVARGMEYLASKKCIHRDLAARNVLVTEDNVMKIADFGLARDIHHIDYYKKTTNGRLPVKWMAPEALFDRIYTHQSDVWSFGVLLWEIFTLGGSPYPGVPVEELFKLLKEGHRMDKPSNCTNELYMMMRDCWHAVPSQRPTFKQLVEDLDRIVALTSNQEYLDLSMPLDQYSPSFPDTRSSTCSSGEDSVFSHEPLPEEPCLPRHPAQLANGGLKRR
Assay for Inhibition of FGFr
For FGF receptor (FGFr) tyrosine kinase assays 96-well plates (100 μL/incubation/well), and conditions are optimized to measure the incorporation of ^32P from [γ^32P]ATP into a glutamate-tyrosine co-polymer substrate. Briefly, to each well is added 82.5 μL incubation buffer B (25 mM Hepes (pH 7.0), 150 mM NaCl, 0.1% Triton X-100, 0.2 mM PMSF, 0.2 mM Na3VO4, 10 mM MnCl2) and 750 μg/mL Poly (4:1) glutamate-tyrosine followed by 2.5 μL of the test compound in buffer B and 5 μL of a 7.5 μg/μL FGFr solution to initiate the reaction. Following a 10-minute incubation at 25° C., […] [γ^32P]ATP (0.4 μCi plus 50 μM ATP) is added to each well, and samples are incubated for an additional 10 minutes at 25° C. The reaction is terminated by the addition of 100 μL 30% trichloroacetic acid (TCA) containing 20 mM sodium pyrophosphate and precipitation of material onto glass fiber mats (Wallac). […] Nonspecific activity is defined as radioactivity retained on the filters following incubation of samples with buffer alone (no enzyme). Specific enzymatic activity (enzyme plus buffer) is defined as total activity minus nonspecific activity.

The target of a further data set is Cdk2/Cyclin A (Homo sapiens, UniProt P24941). The data set is described as follows: Assay for Inhibition of Cdk2/Cyclin A. The data set is classed as biochemical. The note with it: 12 mM ATP (so in the source), retinoblastoma protein substrate, 25° C., 15 minutes. As for the experimental part: as §1
Assay for Inhibition of Cdk2/Cyclin A
Cdk2 enzyme assays for IC50 determinations and kinetic evaluation are performed as follows. 96-well filter plates (Millipore MADVN6550) are used. […] All components except the ATP are added to the wells, and the plate is placed on a plate mixer for 2 minutes. The reaction is initiated by addition of [^32P]ATP, and the plate is incubated at 25° C. for 15 minutes. The reaction is terminated by addition of 0.1 mL 20% TCA. The plate is kept at 4° C. for at least 1 hour to allow the substrate to precipitate. The wells are then washed five times with 0.2 mL 10% TCA, and ^32P incorporation is determined with a beta plate counter (Wallac Inc., Gaithersburg, Md.).

A further data set deals with Cdk4/Cyclin D (Homo sapiens, UniProt P11802). Briefly: Assay for Inhibition of Cdk4/Cyclin D. It counts as biochemical. The note with it: 25 μM ATP, retinoblastoma protein substrate, 25° C., 15 minutes. As to the method: as §1
Sequence of Cdk4/Cyclin D (P11802 whole entry, species assumed): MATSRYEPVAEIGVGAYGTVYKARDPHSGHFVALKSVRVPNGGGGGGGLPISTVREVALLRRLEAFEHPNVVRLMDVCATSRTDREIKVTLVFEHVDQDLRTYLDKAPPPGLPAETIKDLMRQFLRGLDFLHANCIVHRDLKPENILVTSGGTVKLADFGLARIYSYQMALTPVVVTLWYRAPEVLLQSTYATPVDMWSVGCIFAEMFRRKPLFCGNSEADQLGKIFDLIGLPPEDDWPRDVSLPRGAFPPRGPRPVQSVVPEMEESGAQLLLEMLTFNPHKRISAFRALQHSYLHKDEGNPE
Sequence of Cdk4/Cyclin D (P24385 whole entry partner, species assumed): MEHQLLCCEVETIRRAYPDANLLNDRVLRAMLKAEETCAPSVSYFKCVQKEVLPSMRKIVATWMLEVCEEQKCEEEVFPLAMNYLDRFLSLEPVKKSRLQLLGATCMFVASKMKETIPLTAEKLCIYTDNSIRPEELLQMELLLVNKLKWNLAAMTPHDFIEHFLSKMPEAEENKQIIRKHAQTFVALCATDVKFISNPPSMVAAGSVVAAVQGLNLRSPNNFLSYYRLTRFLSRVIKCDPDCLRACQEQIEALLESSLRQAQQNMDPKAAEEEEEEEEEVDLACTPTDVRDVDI
Assay for Inhibition of Cdk4/Cyclin D
The Cdk4 enzyme assay for IC50 determination and kinetic evaluation is performed as follows. 96-well filter plates (Millipore MADVN6550) are used. […] Buffer A containing excess EDTA was used to determine the level of background ^32P in the absence of enzyme activity. All components except the ATP are added to the wells, and the plate is placed on a plate mixer for 2 minutes. The reaction is started by adding [^32P]ATP, and the plate is incubated at 25° C. for 15 minutes. The reaction is terminated by addition of 0.1 mL 20% trichloroacetic acid (TCA). The plate is kept at 4° C. for at least 1 hour to allow the substrate to precipitate. The wells are then washed five times with 0.2 mL 10% TCA, and ^32P incorporation is determined with a beta plate counter (Wallac Inc., Gaithersburg, Md.).

Usually IC50 stands for the midpoint of a concentration-inhibition curve. The low end stands for inhibition by little substance, the high end for a need for much substance. Consider `O=c1c(Cc2ccccc2)cc2cnc(Nc3ccc(N4CCNCC4)cn3)nc2n1C1CCCC1` [Example 24, 6-Benzyl-8-cyclopentyl-2-(5-piperazin-1-yl-pyridin-2-ylamino)-8H-pyrido[2,3-d]pyrimidin-7-one hydrochloride], for which the results for the IC50 (in data set [1]; against Cdk2/Cyclin A; on Cdk4/Cyclin D) were above 5 µM, above 5 µM and 0.005 µM, respectively.

The term melting point denotes the temperature, or range, at which the solid turns liquid. `CC(=O)c1cc2cnc(Nc3ccc(N4CCNCC4)cn3)nc2n(C2CCCC2)c1=O` (as salt: hydrochloride) [Example 33, 6-Acetyl-8-cyclopentyl-2-(5-piperazin-1-yl-pyridin-2-ylamino)-8H-pyrido[2.3-d]pyrimidin-7-one hydrochloride] came in with a melting point above 300 °C.

For `O=c1ccc2cnc(Nc3ccccn3)nc2n1C1CCCC1` [Example 1, 8-Cyclopentyl-2-(pyridin-2-ylamino)-8H-pyrido[2,3-d]pyrimidin-7-one], the values for the half-maximal inhibitory concentration (IC50) (in data set [1]; against Cdk2/Cyclin A; on Cdk4/Cyclin D) were above 5 µM, 5.01 µM and 0.145 µM, respectively.

As to `CCc1cc2cnc(Nc3ccc(N4CCC(O)CC4)cn3)nc2n(C2CCCC2)c1=O` [Example 51, 8-Cyclopentyl-6-ethyl-2-(4-hydroxy-3,4,5,6-tetrahydro-2H-[1,3′]bipyridinyl-6′-ylamino)-8H-pyrido [2,3-d]pyrimidin-7-one], the figures for the IC50 on Cdk2/Cyclin A and on Cdk4/Cyclin D were above 5 µM and 0.135 µM, respectively.

“8-Cyclopentyl-6-methoxymethyl-2-(5-piperazin-1-yl-pyridin-2-ylamino)-8H-pyrido[2,3-d]pyrimidin-7-one [Example 120]”: the concentration for half-maximal inhibition (IC50) in data set [1] is 2.47 µM; against Cdk2/Cyclin A it was 3.8 µM; on Cdk4/Cyclin D, 0.013 µM.

On to `O=c1ccc2cnc(Nc3ccccc3)nc2n1C1CCCC1` [1′, reference compound], for which 0.021 µM corresponded to half-maximal inhibition at Cdk2/Cyclin A (IC50).

In the case of `CCOCc1cc2cnc(Nc3ccc(N4CCCCC4)cn3)nc2n(C2CCCC2)c1=O` [Example 124, 8-Cyclopentyl-6-ethoxymethyl-2-(3,4,5,6-tetrahydro-2H-[1,3]bipyridinyl-6′-ylamino)-8H-pyrido[2,3-d]pyrimidin-7-one], the IC50 was above 5 µM on Cdk2/Cyclin A and 0.545 µM against Cdk4/Cyclin D.

As for `O=c1ccc2cnc(Nc3ccc(N4CCNCC4)cn3)nc2n1C1CCCCC1` [Example 61, 8-cyclohexyl-2-(5-piperazin-1-yl-pyridin-2-ylamino)-8H-pyrido[2,3-d]pyrimidin-7-one], the values for the IC50 (in data set [1]; at Cdk2/Cyclin A; on Cdk4/Cyclin D) were 1.38 µM, 0.835 µM and 0.013 µM, respectively.

Regarding `O=c1ccc2cnc(Nc3ccc(N4CCNCC4)cn3)nc2n1C1CCCC1` (as salt: hydrochloride) [Example 59, 8-cyclopentyl-2-(5-piperazin-1-yl-pyridin-2-ylamino)-8H-pyrido[2,3-d]pyrimidin-7-one], the melting point was 213 to 215 °C.

For the molecule `O=c1c(Br)cc2cnc(Nc3ccc(N4CCNCC4)cn3)nc2n1C1CCCC1` [Example 3, 6-Bromo-8-cyclopentyl-2-(5-piperazin-1-yl-pyridin-2-ylamino)-8H-pyrido [2,3-d]pyrimidin-7-one hydrochloride], the IC50 in data set [1] amounted to 1.03 µM; on Cdk2/Cyclin A, 6.05 µM; against Cdk4/Cyclin D it was 0.016 µM.

For `O=c1ccc2cnc(Nc3ccc(N4CCNCC4)cn3)nc2n1C1CCCC1` [Example 59, 8-cyclopentyl-2-(5-piperazin-1-yl-pyridin-2-ylamino)-8H-pyrido[2,3-d]pyrimidin-7-one], the figures for the IC50 (in data set [1]; against Cdk2/Cyclin A; on Cdk4/Cyclin D) were 1.52 µM, 2.5 µM and 0.015 µM, respectively.

For `Cc1cc2cnc(Nc3ccc(N4CCNCC4)cn3)nc2n(C2CCCC2)c1=O` [Example 20, 8-Cyclopentyl-6-methyl-2-(5-piperazin-1-yl-pyridin-2-ylamino)-8H-pyrido[2,3-d]pyrimidin-7-one hydrochloride], the figures for the 50% inhibitory concentration (IC50) (in data set [1]; on Cdk2/Cyclin A; on Cdk4/Cyclin D) were 1.6 µM, 4.05 µM and 0.027 µM, respectively.

As to `O=c1ccc2cnc(Nc3ccc(N4CCNCC4)cn3)nc2n1C1CC1` [Example 64, 8-cyclopropyl-2-(5-piperazin-1-yl-pyridin-2-ylamino)-8H-pyrido[2,3-d]pyrimidin-7-one], the concentration for half-maximal inhibition (IC50) in data set [1] amounted to 4.47 µM; on Cdk4/Cyclin D it was 0.92 µM.

With `Cc1c(Br)c(=O)n(C2CCCC2)c2nc(Nc3ccc(N4CC(C)NC(C)C4)cn3)ncc12` (centres unmarked) [Example 93, 6-Bromo-8-cyclopentyl-2-[5-(3,5-dimethyl-piperazin-1-yl)-pyridin-2-ylamino]-5-methyl-8H-pyrido[2,3-d]pyrimidin-7-one], the IC50 in data set [1] is above 5 µM; against Cdk4/Cyclin D it was 0.063 µM.

Regarding `CC(=O)c1c(C)c2cnc(Nc3ccc(N4CCC(N)C4)cn3)nc2n(C2CCCC2)c1=O` (centres unmarked) [Example 74, 6-Acetyl-2-[5-(3-amino-pyrrolidin-1-yl)-pyridin-2-ylamino]-8-cyclopentyl-5-methyl-8H-pyrido[2,3-d]pyrimidin-7-one], the half-inhibitory concentration (IC50) in data set [1] was above 5 µM; against Cdk4/Cyclin D, 0.014 µM.

Take `CC(=O)c1c(C)c2cnc(Nc3ccc(N4CCCNCC4)cn3)nc2n(C2CCCC2)c1=O` [Example 81, 6-Acetyl-8-cyclopentyl-2-(5-[1,4]diazepan-1-yl-pyridin-2-ylamino)-5-methyl-8H-pyrido[2,3-d]pyrimidin-7-one]: the IC50 was above 5 µM in data set [1] and 0.012 µM at Cdk4/Cyclin D.

Turning to `O=c1ccc2cnc(Nc3ccc(N4CCNCC4)cn3)nc2n1C1CC1` (as salt: hydrochloride) [Example 64, 8-cyclopropyl-2-(5-piperazin-1-yl-pyridin-2-ylamino)-8H-pyrido[2,3-d]pyrimidin-7-one], the melting point was above 300 °C.

On to `Cc1cc(=O)n(C2CCCC2)c2nc(Nc3ccc(N4CCNCC4)cn3)ncc12` [Example 84, 8-Cyclopentyl-5-methyl-2-(5-piperazin-4-yl-pyridin-2-ylamino)-8H-pyrido[2,3-d]pyrimidin-7-one], for which the figures for the IC50 (in data set [1]; on Cdk4/Cyclin D) were above 5 µM and 0.58 µM, respectively.

`Cc1c(Br)c(=O)n(C2CCCC2)c2nc(Nc3cccc(N)n3)ncc12` [Example 66, 2-(6-amino-pyridin-2-ylamino)-6-bromo-8-cyclopentyl-5-methyl-8H-pyrido[2,3-d]pyrimidin-7-one]: the half-maximal inhibitory concentration (IC50) against Cdk2/Cyclin A was above 5 µM; on Cdk4/Cyclin D, 0.763 µM.

As for `O=c1ccc2cnc(Nc3ccc(N4CCNCC4)cn3)nc2n1C1CCCCC1` (as salt: hydrochloride) [Example 61, 8-cyclohexyl-2-(5-piperazin-1-yl-pyridin-2-ylamino)-8H-pyrido[2,3-d]pyrimidin-7-one], the melting point was in the range of 228 to 230 °C.

As to `CC(=O)c1c(C)c2cnc(Nc3ccc(N4CC(C)NC(C)C4)cn3)nc2n(C2CCCC2)c1=O` (centres unmarked) [Example 95, 6-Acetyl-8-cyclopentyl-2-[5-(3,5-dimethyl-piperazin-1-yl)-pyridin-2-ylamino]-5-methyl-8H-pyrido[2,3-d]pyrimidin-7-one], the IC50 is above 5 µM in data set [1] and 0.037 µM on Cdk4/Cyclin D.

Take `CCOCc1cc2cnc(Nc3ccc(N4CCOCC4)cn3)nc2n(C2CCCC2)c1=O` [Example 125, 8-Cyclopentyl-6-ethoxymethyl-2-(5-morpholin-4-yl-pyridin-2-ylamino)-8H-pyrido[2,3-d]pyrimidin-7-one]: the 50% inhibitory concentration (IC50) in data set [1] is above 5 µM; on Cdk2/Cyclin A, above 5 µM; at Cdk4/Cyclin D, 0.018 µM.
